Reference: patent US7511061B2, “Triazoles as farnesyl transferase inhibitors” (Janssen Pharmaceutica N.V., priority 1999, dated 2009)

molecular target: farnesyl protein transferase (FPTase) (Homo sapiens, UniProt P49354+P49356); experiment: In vitro assay for inhibition of farnesyl protein transferase; assay type: biochemical; settings: test dose of 10^−7 M
Experimental: An in vitro assay for inhibition of farnesyl transferase was performed essentially as described in WO 98/40383, pages 33-34.

Inhibition at 0.1 µM, ≥ 10%:
Cc1ccc(C(=O)N(CCc2ccc(Br)cc2)Cc2nncn2Cc2ccc(C#N)cc2)cc1C [compound 233], N#Cc1ccc(Cn2cnnc2CN(Cc2ccc(F)cc2F)C(=O)c2cccc(Br)c2)cc1 [compound 243], N#Cc1ccc(Cn2cnnc2CN(Cc2ccc(F)cc2F)C(=O)/C=C/c2cc(F)cc(C(F)(F)F)c2)cc1 [compound 245], N#Cc1ccc(Cn2cnnc2CN(Cc2ccc(C(F)(F)F)cc2)C(=O)c2ccc3ccccc3n2)cc1 [compound 302], N#Cc1ccc(Cn2cnnc2CN(CCC(c2ccccc2)c2ccccc2)C(=O)C2CCN(S(=O)(=O)c3ccc(F)cc3)CC2)cc1 [compound 261], N#Cc1ccc(Cn2cnnc2CN(Cc2ccc(Br)cc2)C(=O)c2ccc3ccccc3n2)cc1 [compound 304], N#Cc1ccc(Cn2cnnc2CN(Cc2ccccc2OC(F)(F)F)C(=O)c2ccc3ccccc3n2)cc1 [compound 280], N#Cc1ccc(Cn2cnnc2CN(Cc2ccc(Cl)c(Cl)c2)C(=O)c2ccc3ccccc3n2)cc1 [compound 286], COc1ccc2oc(C(=O)N(Cc3ccc(F)cc3F)Cc3nncn3Cc3ccc(C#N)cc3)cc2c1 [compound 268], C/C(=C\c1ccccc1)C(=O)N(Cc1ccc(F)cc1F)Cc1nncn1Cc1ccc(C#N)cc1 [compound 282], N#Cc1ccc(Cn2cnnc2CN(Cc2ccc(F)cc2F)C(=O)c2cccc(-c3ccccc3C(F)(F)F)c2)cc1 [compound 259], Cc1ccc(Br)cc1C(=O)N(Cc1ccc(F)cc1F)Cc1nncn1Cc1ccc(C#N)cc1 [compound 314], Cc1ccc(C)c(/C=C/C(=O)N(Cc2ccc(F)cc2F)Cc2nncn2Cc2ccc(C#N)cc2)c1 [compound 225], N#Cc1ccc(Cn2cnnc2CN(Cc2ccc(F)cc2F)C(=O)/C=C/c2cccc(C(F)(F)F)c2)cc1 [compound 231], CC1=C(C(=O)N(Cc2ccc(F)cc2F)Cc2nncn2Cc2ccc(C#N)cc2)Cc2ccccc21 [compound 258], N#Cc1ccc(Cn2cnnc2CN(Cc2ccc(F)cc2F)C(=O)c2ccc(-c3ccc(F)cc3)o2)cc1 [compound 274], N#Cc1ccc(Cn2cnnc2CN(Cc2ccc(Cl)cc2Cl)C(=O)c2ccc3ccccc3n2)cc1 [compound 284], Cc1nnc(CN(Cc2ccc(F)cc2F)C(=O)c2ccc3ccccc3n2)n1-c1ccc(C#N)cc1 [compound 313], N#Cc1ccc(Cn2cnnc2CN(Cc2ccc(F)cc2F)C(=O)c2ccc(Br)o2)cc1 [compound 229], N#Cc1ccc(Cn2cnnc2CN(Cc2ccc(F)cc2F)C(=O)c2cccc(-c3ccsc3)n2)cc1 [compound 278], N#Cc1ccc(Cn2cnnc2CN(Cc2cc(C(F)(F)F)cc(C(F)(F)F)c2)C(=O)c2ccc3ccccc3n2)cc1 [compound 226], N#Cc1ccc(Cn2cnnc2CN(CCc2ccc(Br)cc2)C(=O)c2cccc(Br)c2)cc1 [compound 222], Cc1ccc(C(=O)N(Cc2ccc(F)cc2F)Cc2nncn2Cc2ccc(C#N)cc2)cc1-c1cc(Cl)ccc1Cl [compound 221], COc1ccc2oc(C(=O)N(CCc3ccc(Br)cc3)Cc3nncn3Cc3ccc(C#N)cc3)cc2c1 [compound 237], N#Cc1ccc(Cn2cnnc2CN(Cc2ccc(F)cc2)C(=O)c2ccc3ccccc3n2)cc1 [compound 297], N#Cc1ccc(Cn2cnnc2CN(Cc2ccc(F)cc2F)C(=O)/C(=C/c2ccccc2)c2ccccc2)cc1 [compound 266], Cc1cccc(Cc2nnc(CN(c3ccc(Oc4ccccc4)cc3)S(=O)(=O)c3ccc(-c4ccc(F)c(Cl)c4)cc3C)n2Cc2cccc(C)n2)n1 [compound 230], COc1ccc(CCN(Cc2nncn2Cc2ccc(C#N)cc2)C(=O)c2ccc3ccccc3n2)cc1 [compound 236], COc1ccccc1/C=C/C(=O)N(Cc1ccc(F)cc1F)Cc1nncn1Cc1ccc(C#N)cc1 [compound 267], N#Cc1ccc(Cn2cnnc2CN(Cc2ccc(F)cc2F)C(=O)c2nc3ccccc3nc2O)cc1 [compound 301], N#Cc1ccc(Cn2cnnc2CN(C(=O)c2ccc3ccccc3n2)c2ccc(N3CCOCC3)cc2)cc1 [compound 248], N#Cc1ccc(Cn2cnnc2CN(Cc2ccco2)C(=O)c2ccc3ccccc3n2)cc1 [compound 247], N#Cc1ccc(Cn2cnnc2CN(CCSCc2c(F)cccc2Cl)C(=O)c2ccc3ccccc3n2)cc1 [compound 271], Cc1cccc(/C=C/C(=O)N(Cc2ccc(F)cc2F)Cc2nncn2Cc2ccc(C#N)cc2)c1 [compound 254], N#Cc1ccc(Cn2cnnc2CN(C(=O)c2ccc3ccccc3n2)c2ccc(Oc3ccccc3)cc2)cc1 [compound 256], N#Cc1ccc(Cn2cnnc2CN(Cc2cc(F)cc(F)c2)C(=O)c2ccc3ccccc3n2)cc1 [compound 305], N#Cc1ccc(Cn2cnnc2CN(Cc2c(F)ccc(F)c2F)c2ccc(Oc3ccccc3)cc2)cc1 [compound 238], N#Cc1ccc(Cn2cnnc2CN(CCc2ccc(Br)cc2)C(=O)c2cc3ccccc3o2)cc1 [compound 251], N#Cc1ccc(Cn2cnnc2CN(Cc2ccccc2Cl)C(=O)c2ccc3ccccc3n2)cc1 [compound 294], Cc1ccc(C(=O)N(Cc2ccc(F)cc2F)Cc2nncn2Cc2ccc(C#N)cc2)cc1-c1ccc(F)c(Cl)c1 [compound 224], N#Cc1ccc(Cn2cnnc2CN(CCc2ccc(Br)cc2)C(=O)c2ccc3ccccc3c2)cc1 [compound 265], N#Cc1ccc(Cn2cnnc2CN(Cc2c(F)cccc2F)c2ccc(Oc3ccccc3)cc2)cc1 [compound 234], N#Cc1ccc(Cn2cnnc2CN(Cc2ccc(F)cc2F)C(=O)c2ccc(-c3ccccc3C(F)(F)F)o2)cc1 [compound 281], N#Cc1ccc(Cn2cnnc2CN(Cc2cccc(Cl)c2)C(=O)c2ccc3ccccc3n2)cc1 [compound 275], N#Cc1ccc(Cn2cnnc2CN(Cc2cccc(F)c2F)C(=O)c2ccc3ccccc3n2)cc1 [compound 307], COc1cc(C(=O)N(Cc2ccc(F)cc2F)Cc2nncn2Cc2ccc(C#N)cc2)nc2ccccc12 [compound 298], N#Cc1ccc(Cn2cnnc2CN(CCc2ccc(Br)cc2)C(=O)c2ccc3c(c2)OCO3)cc1 [compound 244], N#Cc1ccc(Cn2cnnc2CN(Cc2ccc(F)cc2F)C(=O)c2ccc(Br)s2)cc1 [compound 218], N#Cc1ccc(Cn2cnnc2CN(CCc2ccc(Br)cc2)C(=O)c2ccc3ccccc3n2)cc1 [compound 269], Cc1ccccc1-c1cccc(C(=O)N(Cc2ccc(F)cc2F)Cc2nncn2Cc2ccc(C#N)cc2)c1 [compound 242], N#Cc1ccc(Cn2cnnc2CN(Cc2ccc(F)cc2F)C(=O)C2=Cc3ccccc3OC2)cc1 [compound 289], N#Cc1ccc(Cn2cnnc2CN(CCc2ccc(Br)cc2)C(=O)c2ccc(Br)o2)cc1 [compound 219], N#Cc1ccc(Cn2cnnc2CN(Cc2ccc(F)cc2F)C(=O)c2ccc3ccccc3c2)cc1 [compound 315], COC(=O)c1cc(C)nc(N(Cc2nnc[nH]2)Cc2ccc(F)cc2F)[n+]1Cc1ccc(C#N)cc1 [compound 255], N#Cc1ccc(Cn2cnnc2CN(Cc2ccc(F)cc2F)C(=O)c2cc(Br)cc3c2OCC3)cc1 [compound 291], Cc1ccc(C(=O)N(Cc2ccc(F)cc2F)Cc2nncn2Cc2ccc(C#N)cc2)cc1-c1ccsc1 [compound 288], COc1cc(C(=O)N(CCc2ccc(Br)cc2)Cc2nncn2Cc2ccc(C#N)cc2)nc2ccccc12 [compound 220], N#Cc1ccc(Cn2cnnc2CN(Cc2ccc(F)cc2F)C(=O)c2cc3ccccc3s2)cc1 [compound 270], Cc1ccccc1-c1cc(C(=O)N(Cc2ccc(F)cc2F)Cc2nncn2Cc2ccc(C#N)cc2)ccc1C [compound 260], Cc1ccc(C(=O)N(Cc2ccc(F)cc2F)Cc2nncn2Cc2ccc(C#N)cc2)cc1-c1cc(Cl)cc(Cl)c1 [compound 308], N#Cc1ccc(Cn2cnnc2CN(Cc2c(F)cccc2F)C(=O)c2ccc3ccccc3n2)cc1 [compound 303], Cc1cc(C(=O)N(Cc2ccc(F)cc2F)Cc2nncn2Cc2ccc(C#N)cc2)ccc1Br [compound 277], N#Cc1ccc(Cn2cnnc2CN(Cc2ccc(F)cc2F)C(=O)c2cccc(-c3cccc(C(F)(F)F)c3)c2)cc1 [compound 227], N#Cc1ccc(Cn2cnnc2CN(Cc2ccccc2)C(=O)c2ccc3ccccc3n2)cc1 [compound 232]
